Read-outs that look alike come from different tables or passages of the source.
Assays:
[1] = tested on: Aedes aegypti; assay: Co-toxicity assay with permethrin (topical); conditions: for 1-h knockdown Co-Toxicity Factor / 24-h mortality Co-Toxicity Factor: >+20 potentiation, <−20 antagonism, −20 to +20 additive
Experimental: (§1) For Ae. aegypti, synergism assays were performed similar to the topical applications described previously, with the following modifications: 2 doses (2 µg/mosquito and 10 µg/mosquito) of each monoterpenoid were applied as synergists, similar to previous studies exploring the synergistic potential of natural products in combination with an intermediate dose-level of insecticide alone.
(§2) Mosquitoes were transferred to deli cups and kept at a controlled temperature and humidity (the same conditions as described for the topical application of insecticides and monoterpenoids alone). Again, a minimum of 3 separate rearing cohorts were used among replicates of each dose combination.
(§3) Dose responses were modeled via probit analysis, and their resulting estimates were obtained. […] A control correction option (OPTC command) was used to account for responses to the vehicle control treatments. Co-toxicity values were calculated by the method of [29]. A co-toxicity factor of >+20 signifies potentiation, <−20 antagonism, and −20 to +20 additive.

[2] = tested on: Aedes aegypti
[3] = tested on: rat; conditions: in vivo; cited from earlier work
[4] = tested on: rat; conditions: cited from earlier work
[5] = acidic conditions; cited from earlier work
[6] = tested on: Aedes aegypti; conditions: for 1-h knockdown Co-Toxicity Factor / 24-h mortality Co-Toxicity Factor / 48-h mortality Co-Toxicity Factor: >+20 potentiation, <−20 antagonism, −20 to +20 additive
Experimental: as §1, §2, §3

[7] = target: acetylcholinesterase (Musca domestica, UniProt Q7YWJ9); assay: In vitro inhibition of acetylcholinesterase (Ellman), head homogenate; assay type: biochemical; conditions: at 1 mM, M. domestica preparation
Experimental: Acetylcholinesterase inhibition was conducted on homogenates of whole-body Ae. aegypti and M. domestica heads using Ellman’s method. For Ae. aegypti, 10 whole female adults were placed in 2 mL microcentrifuge screw cap tubes with 3–5.2 mm zircon/silica beads and homogenized in 500 μL of sodium phosphate buffer (100 mM, pH 7.8) using a Precellys Evolution bead beater (Bertin Corp., Rockville, MD, USA) set to two 15-s pulses of 5600 rpm. Afterward, 500 μL of Triton X-100 buffer (100 mM sodium phosphate, pH 7.8, 0.6% Triton X-100) was added to each tube (final Triton X-100 concentration: 0.3%), inverted several times to mix up the sample, and then centrifuged at 10,000× g for 4 min at 4 °C. The supernatant was used as the enzyme source. The same process was carried out with M. domestica, except three heads were processed in a 1000:1000 μL sodium phosphate buffer and Triton X-100 buffer in the same manner as just described.
Concentration responses were conducted in the wells of a 96-well, clear, flat-bottomed plate. Inhibitor solutions of methomyl or monoterpenoids were first dissolved in DMSO (dimethyl sulfoxide) and then diluted in sodium phosphate buffer (100 mM, pH 7.8, DMSO concentration of 1%). A volume of 10 μL of the inhibitor solution was added to each well, along with 90 μL of sodium phosphate buffer, and finally 10 μL of homogenate. This was incubated on a plate shaker at 400 rpm for 10 min at room temperature. The final concentrations for methomyl were 100 μM, 10 μM, 1 μM, 100 nM, 10 nM, 1 nM, and 0 nM. For the monoterpenoids, the same range was used except the top concentration was 1 mM and the bottom non-zero concentration was 10 nM. The final concentration of DMSO in all wells was 0.09%.
After the 10-min incubation, 100 μL of Ellman’s reagent prepared in sodium phosphate buffer and each corresponding inhibitor concentration were added to the wells using a multichannel pipette.
as §3

[8] = tested on: Musca domestica
[9] = tested on: Musca domestica; assay: Co-toxicity assay with permethrin (topical); assay type: in vivo
Experimental: […]. Each dose was formulated in a total volume of 1.5 mL of acetone. A dose of permethrin that produced approximately 50% mortality (18 ng) was used as the treatment. Female flies were sorted into groups of 20 per synergism assay and dosed as previously mentioned (i.e., the same way as in the topical toxicity assays). Flies were assessed for mortality at 24 h.

[10] = under a mercury lamp; cited from earlier work
[11] = 10 μg synergist per Ae. aegypti
[12] = 24 h, topical, adult females, susceptible strain
[13] = 10.2 μg PBO, 70 μg carvone, 190 μg menthone, 80 μg fenchone per fly
[14] = near-sublethal synergist dose + permethrin, >+20 potentiation, <−20 antagonism, −20 to +20 additive

acetylcholinesterase, sequence (Q7YWJ9 81-660): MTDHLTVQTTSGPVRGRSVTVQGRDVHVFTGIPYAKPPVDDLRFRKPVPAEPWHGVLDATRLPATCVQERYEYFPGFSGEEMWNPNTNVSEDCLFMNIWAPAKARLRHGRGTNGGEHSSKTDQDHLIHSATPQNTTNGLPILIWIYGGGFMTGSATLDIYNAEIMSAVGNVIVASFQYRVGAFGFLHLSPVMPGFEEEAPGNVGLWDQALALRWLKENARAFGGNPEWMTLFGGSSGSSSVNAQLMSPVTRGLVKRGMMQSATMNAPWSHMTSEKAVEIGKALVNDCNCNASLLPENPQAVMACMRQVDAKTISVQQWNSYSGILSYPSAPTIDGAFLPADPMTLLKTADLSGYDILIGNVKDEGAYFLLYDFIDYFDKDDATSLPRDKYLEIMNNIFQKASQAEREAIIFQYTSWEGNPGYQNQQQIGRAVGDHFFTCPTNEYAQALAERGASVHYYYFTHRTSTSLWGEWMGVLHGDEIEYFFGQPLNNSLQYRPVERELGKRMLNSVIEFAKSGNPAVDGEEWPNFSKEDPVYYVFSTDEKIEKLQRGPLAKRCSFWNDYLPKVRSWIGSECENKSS

C=C(C)[C@@H]1CC=C(C)C(=O)C1 [Carvone, L-carvone]
1-h% Mean Knockdown ± SEM, Mixture ([1]; 2 μg synergist + permethrin 0.6 ng/mosquito): 100 ± 0% | 1-h knockdown Co-Toxicity Factor ([1]; 2 μg synergist + permethrin): 23.5 | 24-h mortality Co-Toxicity Factor ([1]; 2 μg synergist + permethrin): 83 | 1-h% Mean Knockdown ± SEM, Synergist Alone ([1]; 2 μg synergist per Ae. aegypti): 5 ± 5% | 24-h% Mean Mortality ± SEM, Synergist Alone ([1]; 2 μg synergist per Ae. aegypti): 5 ± 2.9% | 1-h% Mean Knockdown ± SEM, Mixture ([1]; 10 μg synergist + permethrin 0.6 ng/mosquito): 100 ± 0% | 1-h knockdown Co-Toxicity Factor ([1]; 10 μg synergist + permethrin): 4 | 24-h mortality Co-Toxicity Factor ([1]; 10 μg synergist + permethrin): 76 | 1-h% Mean Knockdown ± SEM, Synergist Alone [1, 11]: 20 ± 5.8% | 24-h% Mean Mortality ± SEM, Synergist Alone [1, 11]: 7.5 ± 2.5% | times as strong a synergist of permethrin as PBO ([1]; 24-h mortality, 2 μg synergist): 3.3 | LD10 (95% CI) [2, 12]: 3900 (1900–5200) b ng/mg body weight | LD50 (95% CI) [2, 12]: 7300 (6700–7900) c ng/mg body weight | LD90 (95% CI) [2, 12]: 14,200 (11,000–26,600) c ng/mg body weight | times as toxic as fenchone ([2]; at LD10): about 1.9 | times as toxic as fenchone ([2]; at LD50): about 1.5 | times as toxic as fenchone ([2]; at LD90): about 3.0 | Oral LD50 [3]: 5400 (rt) mg compound per kg body weight | Dermal LD50 [4]: >4000 (rt) mg compound per kg body weight | half-life [5]: ≤ 108 h | 1-h% Mean Knockdown ± SEM, Synergist Alone ([6]; 2 μg applied): 5 ± 5% | 24-h% Mean Mortality ± SEM, Synergist Alone ([6]; 2 μg applied): 5 ± 2.9% | 48-h% Mean Mortality ± SEM, Synergist Alone ([6]; 2 μg applied): 5 ± 2.9% | 1-h% Mean Knockdown ± SEM, Mixture ([6]; 2 μg synergist + methomyl 6 ng/mosquito): 96.7 ± 3.3% | 1-h knockdown Co-Toxicity Factor ([6]; 2 μg synergist + methomyl): 4.5 | 24-h mortality Co-Toxicity Factor ([6]; 2 μg synergist + methomyl): 23 | 48-h mortality Co-Toxicity Factor ([6]; 2 μg synergist + methomyl): 24 | 1-h% Mean Knockdown ± SEM, Synergist Alone ([6]; 10 μg applied): 20 ± 5.8% | 24-h% Mean Mortality ± SEM, Synergist Alone ([6]; 10 μg applied): 7.5 ± 2.5% | 48-h% Mean Mortality ± SEM, Synergist Alone ([6]; 10 μg applied): 15 ± 2.9% | 1-h% Mean Knockdown ± SEM, Mixture ([6]; 10 μg synergist + methomyl 6 ng/mosquito): 100 ± 0% | 1-h knockdown Co-Toxicity Factor ([6]; 10 μg synergist + methomyl): −7 | 24-h mortality Co-Toxicity Factor ([6]; 10 μg synergist + methomyl): 28 | 48-h mortality Co-Toxicity Factor ([6]; 10 μg synergist + methomyl): 8 | times as effective a synergist of methomyl as PBO ([6]; 24-h mortality, 2 μg synergist): 1.7 | inhibition of AChE [7]: 11.1 ± 2.9% | LD10 (95% CI) [8, 12]: 3300 (3100–3400) b ng/mg body weight | LD50 (95% CI) [8, 12]: 4300 (4200–4400) b ng/mg body weight | LD90 (95% CI) [8, 12]: 5600 (5300–5900) b ng/mg body weight | times as toxic as fenchone ([8]; at LD10): 2.7 | times as toxic as menthone ([8]; at LD10): 1.6 | times as toxic as fenchone ([8]; at LD50): 3.1 | times as toxic as menthone ([8]; at LD50): 1.6 | times as toxic as fenchone ([8]; at LD90): 3.6 | times as toxic as menthone ([8]; at LD90): 1.6 | 1-h% Mean Knockdown ± SEM, Synergist Alone [9, 13]: 16 ± 11.8% | 24-h% Mean Mortality ± SEM, Synergist Alone [9, 13]: 0 ± 0% | times as potent a synergist of permethrin as PBO ([9]; 24-h mortality): 1.2 | 1-h% Mean Knockdown ± SEM, Mixture ([9]; near-sublethal synergist dose (10.2 μg PBO, 70 μg carvone, 190 μg menthone, 80 μg fenchone) + permethrin 18 ng): 100 ± 0% | 1-h knockdown Co-Toxicity Factor [9, 14]: 3.2 | 24-h mortality Co-Toxicity Factor [9, 14]: 65.6 | half-life [10]: 23 to 27.8 h

From article PMC10096376, “Insecticidal and Synergistic Potential of Three Monoterpenoids against the Yellow Fever Mosquito, Aedes aegypti (Diptera: Culicidae), and the House Fly, Musca domestica (Diptera: Muscidae)” (Molecules, 2023)
